Measurements taken from patent US8691980B2 (National Taipei University of Technology, priority 2011, dated 2014).

How the values were obtained:
[1] = Latent fluorophore kept in SHL alone, NADH alone or Tris-HCl buffer (background fluorescence / stability); type: physicochemical; settings: 20 μM
Procedure: (§1) ^1H NMR and ^13C NMR spectrums were obtained by Bruker AMX-500 spectrophotometer wherein chemical shift values were expressed in ppm relative to tetramethylsilane (δ unit); fluorescence intensity was measured by using a fluorescence-grade quartz cuvette and a spectrofluorometer, i.e. Horiba Jobin Yvon Fluoromax-4. The other chemicals are purchased from Acros, Aldrich, TCI or Sigma Chemical corporations and directly used without purification. […] Chem. Soc. Jp. 1985, 58, 731; the entire contents thereof are incorporated herein by reference. SHL is obtained from GDS Technology Inc. (USA). D-3-hydroxybutyric acid dehydrogenase is purchased from TOYOBO (Product Code: HBD-301). Cholesterol dehydrogenase is purchased from Genzyme Corp. All measurements were performed in 50 mM Tris-HCl (TRIZMA Base, Tris, pH8). The latent fluorophore is synthesized in DMSO and should be added to a Tris-HCl buffer before use to make the concentration of DMSO not exceed 0.1% (v/v).
(§2) The fluorescence profile of Compound C was analyzed in the presence of SHL and NADH in an aerobic environment. […] However, in case that Compound C was kept in a solution containing both 1 unit of SHL and 1 mM NADH at 37 °C, the fluorescence intensity of Compound B increases 57 times in 90 minutes, as shown in FIG. 1 (dotted line representing the baseline).

[2] = system: SHL and 3-hydroxybutyric acid dehydrogenase; assay: Two-enzyme system: SHL and 3-hydroxybutyric acid dehydrogenase; type: biochemical; settings: Compound C 10 μM; substrate 3-hydroxybutyric acid
Procedure: as §1, with “(v/v). […]” for “(v/v).”
(§3) The measurement of fluorescence was performed at an excitation wavelength λex of 500 nm and an emission wavelength λem of 595 nm. […] The measured fluorescence intensity after subtraction of baseline (concentration of the biochemical molecule to be tested is zero) intensity therefrom was plotted versus the concentration of the biochemical molecule to be tested.

[3] = molecular target: T1, Salicylate hydroxylase (SHL) (Pseudomonas putida, UniProt P23262); assay: Fluorescence profile of the latent fluorophore in the presence of SHL and NADH, aerobic; type: biochemical
T1 construct: purchased GDS Technology Inc. (USA)
T1 sequence (P23262 1-434): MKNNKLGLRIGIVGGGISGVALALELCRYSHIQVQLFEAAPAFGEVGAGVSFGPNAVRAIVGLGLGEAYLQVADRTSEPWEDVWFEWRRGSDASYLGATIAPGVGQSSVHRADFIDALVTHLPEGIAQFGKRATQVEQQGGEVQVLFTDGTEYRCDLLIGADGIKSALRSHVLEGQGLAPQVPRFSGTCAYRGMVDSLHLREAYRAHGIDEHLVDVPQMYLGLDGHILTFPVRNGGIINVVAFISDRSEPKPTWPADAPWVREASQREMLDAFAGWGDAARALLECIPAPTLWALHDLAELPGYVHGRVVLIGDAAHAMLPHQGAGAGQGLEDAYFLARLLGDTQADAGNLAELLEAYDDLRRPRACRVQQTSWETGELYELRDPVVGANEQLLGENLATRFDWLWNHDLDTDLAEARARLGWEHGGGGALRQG
Procedure: as §1, §2

[4] = system: SHL and cholesterol dehydrogenase; assay: Two-enzyme system: SHL and cholesterol dehydrogenase; type: biochemical; settings: Compound C 10 μM
Procedure: as §1, with “(v/v). […]” for “(v/v).”
as §3

[5] = molecular target: T1, Salicylate hydroxylase (SHL); assay: Effect of salicylic acid on the fluorescence intensity (SHL, Compound C, NADH); type: biochemical; settings: salicylic acid added to SHL, Compound C and NADH, aerobic; fluorescence decreased with increasing concentration
Procedure: as §1

[6] = cited from earlier work

SMILES | fluorescence intensity, kept in solution of NADH alone ([1]; kept even for several months) | fluorescence intensity, kept in solution of SHL alone ([1]; kept even for several months) | fluorescence intensity, kept in Tris-HCl buffer solution ([1]; pH 8, kept even for several months) | fluorescence intensity after addition of the substrate [2] | time until fluorescence could be detected ([3]; 1 unit SHL and 1 mM NADH added to Tris-HCl buffer containing Compound C) | increase of fluorescence intensity ([3]; Compound C in solution with 1 unit SHL and 1 mM NADH, 37 °C, in 90 minutes) | fluorescence intensity, only SHL added ([3]; only SHL added to Tris-HCl buffer containing Compound C, after 10 minutes) | fluorescence intensity after addition of the substrate [4] | conversion of Compound C to a fluorogenic compound [5] | blood level that may be fatal [6]
N#Cc1c(-c2nc3ccccc3s2)c(=O)oc2cc(OCc3ccc(C(=O)O)c(O)c3)ccc12 [Compound C] | near the baseline | near the baseline | near the baseline | significantly increased | within several seconds | 57 times | near the baseline | significantly increased | – | –
O=C(O)c1ccccc1O [salicylic acid] | – | – | – | – | – | – | – | – | inhibited | above 4.3 mM
